Measured values taken from patent publication US9693997B2, “Antiviral compounds” (priority 2013, dated 2017).
Where a name gives a salt, the structure may show the parent alone.

Assays:
[1] = test system: pseudotyped VSV G particles (VSVpp) in Huh7-high CD81 cells; assay: microbe, parasite or virus in culture; type: cell-based, vesicular stomatitis virus; details: Vesicular stomatitis virus, 72 h, read-out: VSVpp (EC50, μM)
[2] = test system: Pseudotyped HCV GT1b particles (HCVpp), entry into Huh7-high CD81 cells; assay: microbe, parasite or virus in culture; type: cell-based, HCV GT1b Con1 strain; details: Hepatitis C virus, GT1B, 72 h, read-out: HCVpp GT-1b (EC50, μM)

Row | SMILES | EC50 [1] | EC50 [2]
1 | CC(C)CS(=O)(=O)c1ccc(-c2c(Cl)cc(Nc3n[nH]c(N)n3)cc2C(F)(F)F)cc1 [Compound 65, N*3*-[6-Chloro-4′-(2-methyl-propane-1-sulfonyl)-2-trifluoromethyl-biphenyl-4-yl]-1H-[1,2,4]triazole-3,5-diamine] | > 10 µM | 0.026 µM
2 | CC1(O)CCN(S(=O)(=O)c2ccc(-c3c(Cl)cc(Nc4n[nH]c(N)n4)cc3C(F)(F)F)cc2)CC1 [Compound 66, 1-[4′-(5-Amino-1H-[1,2,4]triazol-3-ylamino)-6′-chloro-2′-trifluoromethyl-biphenyl-4-sulfonyl]-4-methyl-piperidin-4-ol] | 7.32 µM | 0.101 µM
3 | Nc1nc(Nc2cc(Cl)c(-c3ccc(S(=O)(=O)C4CNC4)cc3)c(C(F)(F)F)c2)n[nH]1 [Compound 67, N*3*-[4′-(Azetidine-3-sulfonyl)-6-chloro-2-trifluoromethyl-biphenyl-4-yl]-1H-[1,2,4]triazole-3,5-diamine hydrochloride] | > 10 µM | 0.107 µM
4 | CC1(O)CCN(S(=O)(=O)c2ccc(-c3c(Cl)cc(Nc4n[nH]c(N)n4)cc3C(F)(F)F)cc2)C1 (stereo not drawn) [Compound 68, 1-[4′-(5-Amino-1H-[1,2,4]triazol-3-ylamino)-6′-chloro-2′-trifluoromethyl-biphenyl-4-sulfonyl]-3-methyl-pyrrolidin-3-ol] | 8.73 µM | 0.05 µM
5 | Nc1nc(Nc2cc(Cl)c(-c3ccc(S(=O)(=O)N4CC5(COC5)C4)cc3)c(C(F)(F)F)c2)n[nH]1 [Compound 69, N*3*-[6-Chloro-4′-(2-oxa-6-aza-spiro[3.3]heptane-6-sulfonyl)-2-trifluoromethyl-biphenyl-4-yl]-1H-[1,2,4]triazole-3,5-diamine] | > 10 µM | 0.033 µM
6 | CS(=O)(=O)c1ccc(-c2c(F)cc(Nc3nc(N)n[nH]3)cc2C(F)(F)F)cc1 [Compound 70, N^5-(2-Fluoro-4′-(methylsulfonyl)-6-trifluoromethylbiphenyl-4-yl)-1H-[1,2,4]-triazole-3,5-diamine] | 5.15 µM | 0.064 µM
7 | CC(C)S(=O)(=O)c1ccc(-c2c(F)cc(Nc3nc(N)n[nH]3)cc2C(F)(F)F)cc1 [Compound 71, N^5-[6-Fluoro-4′-(propane-2-sulfonyl)-2-trifluoromethyl-biphenyl-4-yl]-1H-[1,2,4]-triazole-3,5-diamine] | > 10 µM | 0.153 µM
8 | CNS(=O)(=O)c1ccc(-c2c(F)cc(Nc3nc(N)n[nH]3)cc2C(F)(F)F)cc1 [Compound 72, 4′-(5-Amino-2H-[1,2,4]-triazol-3-ylamino)-6′-fluoro-2′-trifluoromethyl-biphenyl-4-sulfonic acid methylamide] | > 10 µM | 0.154 µM
9 | COCC(=O)Nc1ccc(-c2c(Cl)cc(Nc3n[nH]c(N)n3)cc2Cl)cc1 [Compound 73, N-(4′-(5-amino-1H-[1,2,4]triazol-3-ylamino)-2′,6′-dichlorobiphenyl-4-yl)-2-methoxyacetamide] | 24.1 µM | 0.113 µM
10 | CN(C)S(=O)(=O)c1ccc(-c2c(F)cc(Nc3nc(N)n[nH]3)cc2C(F)(F)F)cc1 [Compound 75, 4′-(5-Amino-2H-[1,2,4]-triazol-3-ylamino)-6′-fluoro-2′-trifluoromethyl-biphenyl-4-sulfonic acid dimethylamide] | 12.6 µM | 0.164 µM
11 | CS(=O)(=O)c1ccc(-c2c(F)cc(Nc3nc(N)n[nH]3)cc2F)cc1 [Compound 76, N^5-(2,6-difluoro-4′-(methylsulfonyl)biphenyl-4-yl)-1H-[1,2,4]-triazole-3,5-diamine] | > 10 µM | 0.246 µM
12 | Nc1n[nH]c(Nc2cc(F)c(-c3ccc(S(=O)(=O)N4CCOCC4)cc3)c(F)c2)n1 [Compound 77, N^5-(2,6-difluoro-4′-(morpholine-4-sulfonyl)biphenyl-4-yl)-1H-[1,2,4]-triazole-3,5-diamine] | 24.7 µM | 0.19 µM
13 | Nc1n[nH]c(Nc2cc(F)c(-c3ccc(S(=O)(=O)N4CCOCC4)cc3)c(C(F)(F)F)c2)n1 [Compound 78, N^5-[6-Fluoro-4′-(morpholine-4-sulfonyl)-2-trifluoromethylbiphenyl-4-yl]-1H-[1,2,4]-triazole-3,5-diamine] | 8.18 µM | 0.346 µM
14 | N#Cc1ccc(-c2c(F)cc(Nc3nc(N)n[nH]3)cc2C(F)(F)F)cc1 [Compound 79, 4′-(5-Amino-2H-[1,2,4]-triazol-3-ylamino)-6′-fluoro-2′-trifluoromethyl-biphenyl-4-carbonitrile] | 8.11 µM | 0.483 µM
15 | CS(=O)(=O)c1cccc(-c2c(F)cc(Nc3nc(N)n[nH]3)cc2F)c1 [Compound 80, N^5-(2,6-difluoro-3′-(methylsulfonyl)biphenyl-4-yl)-1H-[1,2,4]-triazole-3,5-diamine] | > 10 µM | 0.286 µM
16 | CNS(=O)(=O)c1cccc(-c2c(F)cc(Nc3nc(N)n[nH]3)cc2C(F)(F)F)c1 [Compound 81, 4′-(5-Amino-2H-[1,2,4]-triazol-3-ylamino)-6′-fluoro-2′-trifluoromethyl-biphenyl-3-sulfonic acid methylamide] | 34.9 µM | 0.549 µM
17 | Nc1nc(Nc2cc(Cl)c(-c3ccc(NC(=O)C4CCOCC4)cc3)c(Cl)c2)n[nH]1 [Compound 82, Tetrahydropyran-4-carboxylic acid-(4′-(5-amino-1H-[1,2,4]triazol-3-ylamino)-2′,6′-dichlorobiphenyl-4-yl)-amide] | > 10 µM | 0.39 µM
18 | Nc1nc(Nc2cc(Cl)c(-c3ccc([N+](=O)[O-])cc3)c(Cl)c2)n[nH]1 [Compound 83] | 4.34 µM | 0.532 µM
19 | CN(C)S(=O)(=O)c1cccc(-c2c(F)cc(Nc3nc(N)n[nH]3)cc2C(F)(F)F)c1 [Compound 84, 4′-(5-Amino-2H-[1,2,4]-triazol-3-ylamino)-6′-fluoro-2′-trifluoromethyl-biphenyl-3-sulfonic acid dimethylamide] | 16.8 µM | 0.43 µM
20 | CN(C)C(=O)c1ccc(-c2c(F)cc(Nc3nc(N)n[nH]3)cc2C(F)(F)F)cc1 [Compound 85, 4′-(5-Amino-2H-[1,2,4]-triazol-3-ylamino)-6′-fluoro-2′-trifluoromethyl-biphenyl-4-carboxylic acid dimethylamide] | > 10 µM | 0.568 µM
21 | COc1ccc(-c2c(F)cc(Nc3nc(N)n[nH]3)cc2C(F)(F)F)cc1 [Compound 86, N^5-[6-Fluoro-4′-methoxy-2-trifluoromethylbiphenyl-4-yl]-1H-[1,2,4]-triazole-3,5-diamine] | 8.87 µM | 0.525 µM
22 | N#Cc1ccc(-c2c(F)cc(Nc3nc(N)n[nH]3)cc2F)cc1 [Compound 87] | > 10 µM | 0.696 µM
23 | Nc1n[nH]c(Nc2cc(F)c(-c3ccc(S(=O)(=O)C(F)(F)F)cc3)c(C(F)(F)F)c2)n1 [Compound 88, N^5-[6-Fluoro-4′-trifluoromethanesulfonyl-2-trifluoromethylbiphenyl-4-yl]-1H-[1,2,4]-triazole-3,5-diamine] | 25.2 µM | 1.95 µM
24 | N#Cc1cccc(-c2c(F)cc(Nc3nc(N)n[nH]3)cc2C(F)(F)F)c1 [Compound 89, 4′-(5-Amino-2H-[1,2,4]-triazol-3-ylamino)-6′-fluoro-2′-trifluoromethyl-biphenyl-3-carbonitrile] | 33.3 µM | 25.1 µM
